Consider four molecules from publication PMC4888278, “Structural determinant for inducing RORgamma specific inverse agonism triggered by a synthetic benzoxazinone ligand” (BMC Structural Biology, 2016).

Experiment [1] concerns the target T1, GAL4 fused to the LBD of RORα (Homo sapiens, UniProt P35398).
T1 construct: cells expressing GAL4 fused to the LBD of ROR α or β, respectively; expressed in transfected cells
T1 sequence (P35398 272-510 limits assumed): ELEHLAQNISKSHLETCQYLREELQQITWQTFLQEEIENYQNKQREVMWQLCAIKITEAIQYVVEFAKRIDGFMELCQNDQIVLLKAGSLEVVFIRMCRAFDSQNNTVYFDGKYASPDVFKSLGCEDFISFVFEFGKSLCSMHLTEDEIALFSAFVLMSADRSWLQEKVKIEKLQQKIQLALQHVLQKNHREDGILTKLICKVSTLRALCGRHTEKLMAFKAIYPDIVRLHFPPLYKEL
Description: GAL4 cellular luciferase reporter assay, GAL4 fused to LBD of RORα. The format is cell-based. Here is the method: (§1) FRET-based (Fluorescence Resonance Energy Transfer) assay and the GAL4 Reporter assay were performed as described previously. BIO592 and BIO399 were synthesized (Additional file 1) and belonged to a proprietary library where they were identified as RORγ activity modulators using the FRET-based assay.
(§2) In order to assess the in vivo selectivity profile of BIO399 a cellular reporter assay was implemented where the ligand binding domains of ROR α, β and γ were fused to the DNA binding domain of the transcriptional factor GAL4. The ROR-GAL4 fusion proteins were expressed in cells with the luciferase reporter gene under the control of a GAL4 promoter. […] The LBS of RORs share a high degree of similarity. However, the inverse agonism trigger of BIO399, residue Met358, is a leucine in both RORα and β. This selectivity profile for BIO399 is attributed to the shorter leucine side chain in RORα and β which would not reach the phenylalanine on the AF2 helix further underscoring the role of Met358 as a trigger for RORγ specific inverse agonism (Fig. 7a). Furthermore, RORα contains two phenylalanine residues in its LBS whereas RORβ and γ have a leucine in the same position (Fig. 6b). We hypothesize that the two phenylalanine residues in the LBS of RORα occlude the dihydrobenzoxazepinone ring system of BIO399 from binding it and responsible for the increase in […].

For experiment [2], the target named is T2, GAL4 fused to the LBD of RORβ (Homo sapiens, UniProt Q92753).
T2 construct: cells expressing GAL4 fused to the LBD of ROR α or β, respectively; expressed in transfected cells
T2 sequence (Q92753 222-460 limits assumed): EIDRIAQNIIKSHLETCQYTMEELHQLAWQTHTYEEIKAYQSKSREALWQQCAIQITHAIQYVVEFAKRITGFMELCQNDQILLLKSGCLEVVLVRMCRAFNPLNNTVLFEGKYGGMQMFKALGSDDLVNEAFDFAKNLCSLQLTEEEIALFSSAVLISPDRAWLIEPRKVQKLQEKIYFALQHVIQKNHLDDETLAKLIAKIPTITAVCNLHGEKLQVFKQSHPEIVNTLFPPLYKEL
Description: GAL4 cellular luciferase reporter assay, GAL4 fused to LBD of RORβ. The format is cell-based. As to the method: as §1, §2

Experiment [3] has as its target T3, RORγ-GAL4 fusion (Homo sapiens, UniProt P51449).
T3 construct: expressed in transfected cells
T3 sequence (P51449 269-508 limits assumed): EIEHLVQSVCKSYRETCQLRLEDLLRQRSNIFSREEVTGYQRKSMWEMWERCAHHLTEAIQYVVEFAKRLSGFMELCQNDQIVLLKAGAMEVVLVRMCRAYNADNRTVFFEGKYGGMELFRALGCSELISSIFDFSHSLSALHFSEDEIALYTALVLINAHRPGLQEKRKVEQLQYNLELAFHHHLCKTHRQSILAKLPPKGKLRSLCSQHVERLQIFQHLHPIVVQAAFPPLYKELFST
Nature of the experiment: GAL4 cellular luciferase reporter assay, RORγ-GAL4 fusion. The format is cell-based. As to the method:
as §1, §2

Experiment [4] deals with T4, RORγ (Homo sapiens, UniProt P51449).
T4 construct: sub-cloning residues 259 to 518 of a human RORγ cDNA; GST (PreScission site) (N); made in house; host or cells: Escherichia coli BL21 (DE3)
T4 sequence (P51449 259-518): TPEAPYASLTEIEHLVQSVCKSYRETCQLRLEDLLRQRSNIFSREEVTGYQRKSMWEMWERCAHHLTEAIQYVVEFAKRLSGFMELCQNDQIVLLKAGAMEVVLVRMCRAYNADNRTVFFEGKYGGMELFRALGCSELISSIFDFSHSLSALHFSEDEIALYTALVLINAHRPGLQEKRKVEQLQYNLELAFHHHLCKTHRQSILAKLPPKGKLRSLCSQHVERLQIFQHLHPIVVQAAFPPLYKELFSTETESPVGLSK
Nature of the experiment: FRET based assay monitoring coactivator peptide TRAP220 recruitment to RORγ. The format is biochemical. Here is the method: as §1

The subject of experiment [5] is RORγ. On the set-up: method as in PMID 24239186. The conditions noted are these: SRC1 displacement FRET assay; cited from earlier work.
Experiment [6] deals with T5, RORγ518 (human RORγ ligand binding domain, residues 259-518) (human, UniProt P51449 259-518).
T5 construct: Cloned in pGEX-6P; GST removed with PreScission Protease before SEC, crystallisation and proteolysis; also called GST-RORγ518 (before cleavage); source: E. coli BL21 (DE3), purified (Glutathione Sepharose, PreScission Protease, Superdex 75); not shown: GST, N-terminal, cleaved
T5 sequence (looked up): T4 sequence (P51449 259-518)
Description: crystal structure; RORγ518 8 mg/ml with 0.5 mM EBI96 and 1 mM agonist BIO592; vapor diffusion, 0.1 M HEPES pH 8.0, 25 % PEG3350, 0.2 M NaCl, 18 °C; 2.63 Å, P21, four ternary complexes in the asymmetric unit. The conditions noted are these: both partners purified.

As to `CCN1C(=O)C(C)(C)COc2cc(N(CC(F)(F)F)S(=O)(=O)c3ccc(C)c(C)c3)ccc21` [BIO399, N-(9-Ethyl-7,7-dimethyl-8-oxo-6,7,8,9-tetrahydro-5-oxa-9-aza-benzocyclohepten-3-yl)-3,4-dimethyl-N-(2,2,2-trifluoro-ethyl)-benzenesulfonamide], the half-maximal inhibitory concentration (IC50) in experiment [1] (GAL4 cell assay, RORα, N = 2) was greater than 10000 nM; in experiment [2] (GAL4 cell assay, RORβ, N = 2), greater than 1200 nM; in experiment [3] (GAL4 cell assay, RORγ, N = 6), 43 nM; in experiment [3] (luciferase activity, cells expressing RORγ-GAL4 fusion), 42.5 nM; in experiment [4] (inverse agonist, inhibition of coactivator recruitment in the authors' FRET assay) it was 4.7 nM. In addition, the Selectivity is greater than 235 X in experiment [1] (GAL4 cell assay, RORγ versus RORα) and greater than 28.2 X in experiment [2] (GAL4 cell assay, RORγ versus RORβ). Besides, in experiment [1] (GAL4 reporter, RORγ versus RORα), the “fold selectivity over RORα” value is given as greater than 235 fold. Also, the “fold selectivity over RORβ” value in experiment [2] (GAL4 reporter, RORγ versus RORβ) was greater than 28 fold.
`O=S(=O)(c1ccccc1)N(CC(F)(F)F)c1ccc(C(O)(C(F)(F)F)C(F)(F)F)cc1` [T0901317]: the IC50 in experiment [5] is […].
As for `CCN1C(=O)COc2cc(N(CC(F)(F)F)S(=O)(=O)c3ccc(C)c(C)c3)ccc21` [BIO592, N-(4-ethyl-3-oxo-3,4-dihydro-2H-benzo[b][1,4]oxazin-7-yl)-3,4-dimethyl-N-(2,2,2-trifluoroethyl)benzenesulfonamide], the Emax in experiment [4] (agonist, coactivator peptide TRAP220 recruitment) came out at 130%. Besides, the EC50 in experiment [4] (agonist, increase of coactivator peptide TRAP220 recruitment to RORγ) came to 58 nM.

B1: coactivator peptide EBI96 (peptide)
peptide: EFPYLLSLLGEVSPQ
notes: source: synthetic peptide; bought: New England Peptide
As to B1, the binding result in experiment [6] is “binds”.
